According to article PMC6934184, “Selective DNA-PKcs inhibition extends the therapeutic index of localized radiotherapy and chemotherapy” (The Journal of Clinical Investigation, 2019):

Target: T1, NEK1 (Homo sapiens, UniProt Q96PY6)
T1 construct: purchased Thermo Fisher Scientific (Life Technologies) SelectScreen
Experiment: SelectScreen Z'LYTE
Assay type: biochemical
Procedure, shortened: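 Percent values come from Thermo SelectScreen profiling of NU5455, combining activity and binding assays. CSF1R was run in Z'LYTE format at Km app ATP, and CAMK1 in Adapta format with ATP listed at 10.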

T1 sequence (Q96PY6 whole entry): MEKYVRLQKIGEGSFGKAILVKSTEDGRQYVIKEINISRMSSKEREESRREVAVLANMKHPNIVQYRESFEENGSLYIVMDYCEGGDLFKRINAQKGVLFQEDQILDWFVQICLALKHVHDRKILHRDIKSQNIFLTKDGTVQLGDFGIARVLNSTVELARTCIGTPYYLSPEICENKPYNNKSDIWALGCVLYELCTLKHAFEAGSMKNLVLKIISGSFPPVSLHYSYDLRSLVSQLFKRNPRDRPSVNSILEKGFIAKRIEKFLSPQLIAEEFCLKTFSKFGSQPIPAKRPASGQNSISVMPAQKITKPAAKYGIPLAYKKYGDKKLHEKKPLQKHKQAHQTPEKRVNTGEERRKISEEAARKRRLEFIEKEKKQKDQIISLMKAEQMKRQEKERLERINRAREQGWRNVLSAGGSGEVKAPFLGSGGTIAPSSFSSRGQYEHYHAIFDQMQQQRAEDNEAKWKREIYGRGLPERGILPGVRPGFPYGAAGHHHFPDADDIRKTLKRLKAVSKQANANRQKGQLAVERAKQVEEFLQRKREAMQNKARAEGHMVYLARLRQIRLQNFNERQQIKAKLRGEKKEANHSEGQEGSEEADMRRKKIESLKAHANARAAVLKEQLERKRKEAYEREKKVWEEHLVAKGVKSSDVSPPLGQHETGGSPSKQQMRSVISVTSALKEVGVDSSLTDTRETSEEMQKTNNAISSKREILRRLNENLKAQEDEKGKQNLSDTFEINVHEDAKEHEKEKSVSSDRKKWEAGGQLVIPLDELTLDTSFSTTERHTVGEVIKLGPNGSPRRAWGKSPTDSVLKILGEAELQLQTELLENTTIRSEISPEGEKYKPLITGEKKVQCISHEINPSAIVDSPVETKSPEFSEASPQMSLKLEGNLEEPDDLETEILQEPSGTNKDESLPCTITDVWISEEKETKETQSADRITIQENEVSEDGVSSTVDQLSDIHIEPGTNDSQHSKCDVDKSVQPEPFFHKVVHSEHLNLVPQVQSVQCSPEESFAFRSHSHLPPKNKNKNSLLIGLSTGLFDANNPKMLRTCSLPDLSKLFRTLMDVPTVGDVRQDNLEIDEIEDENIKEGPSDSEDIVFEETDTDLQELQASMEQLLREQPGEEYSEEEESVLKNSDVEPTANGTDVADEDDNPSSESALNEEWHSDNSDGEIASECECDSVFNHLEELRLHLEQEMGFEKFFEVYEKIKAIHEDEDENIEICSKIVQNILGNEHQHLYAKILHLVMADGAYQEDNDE

**Q.** Which inhibition at 1 µM does the source give for `CN(C(=O)CN1CCOCC1)c1ccc2sc3c(-c4cccc5c(=O)cc(N6CC7CCC(C6)O7)oc45)cccc3c2c1` [NU5455] here?
**A.** Its inhibition at 1 µM is 12.9%.
